# Experimental data: patent US12630493B2, “Anti-inflammatory compounds” (priority 2018, dated 2026)
# “Also recorded” adds a separate entry of the source.
# Legend:
# [1] = system: TNF-[…]; assay: kavain analog screening assay, TNF inhibition in BMM infected with P. gingivalis; assay type: cell-based, murine
# Experimental: (§1) To identify compounds with strong anti-inflammatory properties, kavain analogs were tested in a screening assay based on TNF-[…] inhibition in BMM infected with P. gingivalis (FIG. 1B). This screen identified Kava-205Cl (5,5-dimethyl-3-oxocyclohex-1-en-1-yl 4-chlorobenzoate) and its methylated analog Kava-205Me (5,5-dimethyl-3-oxocyclohex-1-en-1-yl 4-methylbenzoate) (FIG. 1B) as effective inhibitors of TNF-[…] secretion (z=−0.99 and z=−1.07 respectively).
# [2] = system: TNF-α; assay: TNF-α secretion, dose-response in BMM infected with P. gingivalis; assay type: cell-based, murine
# Experimental: (§2) See Amar, Salomon et al., Identification of a Kavain Analog with Efficient Anti-inflammatory Effects, [Currently unpublished], 2019. (Incorporated by reference in its entirety, herein). Specifically, in an in vitro assay of anti-inflammatory effects, murine macrophages (BMM) and THP-1 cells were infected with P. gingivalis (MOI=20:1) and a panel of cytokines were measured.
# as §1
# [3] = system: P. gingivalis-induced calvarial destruction; assay: acute model of P. gingivalis-induced calvarial destruction; assay type: in vivo
# Experimental: as §2
# In an acute model of P. gingivalis infection, Kava-205Me was administered to evaluate its anti-inflammatory and pro-healing properties in vivo. In this calvarial model, injection of P. gingivalis induced formation of a cutaneous abscess characterized by dermal inflammation and bone destruction (FIG. 4).
# [4] = system: infective arthritis (collagen-antibody + P. gingivalis); assay: infective arthritis murine model, P. gingivalis and AB peritoneal injection (Kava-205Me); assay type: in vivo, mice
# Experimental: as §2
# To evaluate the systemic effect of Kava-205Me, an infective arthritis was induced in mice by the combined insults of P. gingivalis and AB peritoneal injection. After 10 days, significant paw swelling was observed, confirming the establishment of joint inflammation and a destructive process (FIG. 5). […] This anti-inflammatory effect was confirmed histologically (FIG. 5C).
# [5] = system: IL-12, IFN-γ, MIP-1β, RANTES, IL-10, G-CSF and eotaxin; assay: multiplex analysis of chemokines and cytokines from BMM exposed to P. gingivalis; assay type: cell-based, murine
# Experimental: as §2
# (§3) P. gingivalis is able to induce sustained recruitment of immune cells such a neutrophils and T-lymphocytes, whose presence is associated with excessive inflammation and tissue destruction at infectious sites. To evaluate the effect of Kava-205Me on the secretion of chemokines and cytokines from BMM exposed to P. gingivalis, a multiplex analysis was performed that compared P. gingivalis infected cells with and without treatment with Kava-205Me. […] Moreover, the gene expression of ACP5, an osteoclast specific gene, was evaluated in BMM infected with P. gingivalis with or without Kava-205Me treatment.
# [6] = system: TNF-α; assay: TNF-α secretion, dose-response in THP-1 infected with P. gingivalis; assay type: cell-based, human
# Experimental: as §2, §1
# [7] = system: ACP5; assay: ACP5 gene expression in BMM infected with P. gingivalis; assay type: cell-based, murine
# Experimental: as §3
# [8] = system: P. gingivalis+ type II collagen antibody induced periodontitis; details: P. gingivalis induced PD in a collagen antibody primed mouse model; cited from earlier work
# [9] = system: infective arthritis (P. gingivalis + ArthritoMab antibody cocktail); assay: infective arthritis murine model triggered by P. gingivalis and primed with collagen antibody cocktail (Kava-241); assay type: in vivo, DBA1/BO male mice; details: CIA cocktail, treated concomitantly
# From the text: Kava-241 (I-BC-241) is a compound derived from kavain and has been synthesized as described previously. In this example, we evaluated the systemic and articular effects Kava-241 in an infective arthritis murine model triggered by P. gingivalis bacterial inoculation and primed with collagen antibody cocktail (CIA) to induce joint inflammation and tissular destruction. Arthritis was induced in twenty-eight six-week-old, pathogen-free DBA1/BO male mice by two consecutive injections of ArthritoMab (AB) Antibody cocktail (CIA-MAB-2C, MD Bioproducts, Oakdale, MN, USA), the first injection of 7 mg at baseline, followed by a second injection of 4 mg at day 5. For P. gingivalis injected groups, 3 intraperitoneal injections of 5.10^8 bacteria/100 μl were performed at days 2, 8 and 11. Mice were sacrificed after 17 days. Clinical inflammation score and radiological analysis of the paws were performed continuously while histological assessment was obtained at sacrifice. Forepaws were evaluated to score arthritis using a visual qualitative assessment scoring as follows: 0) no paw swelling, 1) mild swelling, 2) moderate swelling, 3) severe swelling (22). Inflammation was also evaluated with X-rays examination.
# [10] = system: P. gingivalis+ type II collagen antibody induced periodontitis; assay: collagen antibody primed oral gavage model of periodontitis; assay type: in vivo, mice
# Experimental: The effect of Kava-241 on periodontal destruction in a collagen antibody primed oral gavage model of periodontitis was evaluated. In this example, experimental periodontitis was induced by oral gavage of P. gingivalis+ type II collagen antibody (AB) in mice during 15 days. Mice were treated with Kava-241 concomitantly or prior to P. gingivalis gavage and compared to untreated mice. Comprehensive histomorphometric analyses were performed. […] The Kava-241 effect was associated with a reduction in inflammatory cell counts within soft tissues and an increase in fibroblasts.
# [11] = system: TNF-α; details: Escherichia coli LPS-stimulated RAW cells; cited from earlier work
# [12] = system: TNF-α; assay: serum TNF-α in mice injected with P. gingivalis-lipopolysaccharide; assay type: in vivo; details: mice injected with TLR 2/4 ligand P. gingivalis-LPS
# [13] = system: TLR-2/4, MAPKs related signal elements, LITAF; assay: signalling in bone-marrow derived macrophages infected with P. gingivalis; assay type: cell-based, murine; details: BMM infected with P. gingivalis
# [14] = collagen-antibody (ArthriomAb)+P. gingivalis
# [15] = P. gingivalis+ AG group, p<0.05
smiles,measurement,setting,value
"CC1(C)CC(=O)C=C(OC(=O)c2ccc(Cl)cc2)C1 [Kava-205Cl, 5,5-dimethyl-3-oxocyclohex-1-en-1-yl 4-chlorobenzoate]","TNF-[…] secretion, z",[1],−0.99
"Cc1ccc(C(=O)OC2=CC(=O)CC(C)(C)C2)cc1 [Kava-205Me, 5,5-dimethyl-3-oxocyclohex-1-en-1-yl 4-methylbenzoate]",TNF-[…] secretion,"[2]; BMM infected with P. gingivalis, lowest tested dose 10 µg/ml",reduced significantly
same,TNF-α secretion induced by P. gingivalis,"[2]; BMM, MOI=20:1, 10 to 200 μg/ml",significantly and dose-dependently reduced
same,osteoclastic activity,[3],reduced; also recorded: trend of reduction
same,rate of healing,[3]; P. gingivalis injection,significantly improved; also recorded: significantly increased
same,soft tissue inflammation,[3]; histological level,reduced significantly
same,number of TRAP positive multinucleated cells in contact with bone (osteoclastic activity of the infiltrate),[4]; P. gingivalis-exposed animals,reduction
same,inflammatory infiltrate in paw tissue sections,"[4]; animals exposed to P. gingivalis, histology",significant reduction
same,joint destruction,[4]; [14],reduce efficiently
same,paw swelling,[4]; [14],reduce efficiently
same,P. gingivalis-induced paw swelling,"[4]; systemic administration, 32 day time point",significantly decreased
same,"concentrations of chemokines and cytokines (IL-12, IFN-γ, MIP-1β, RANTES, IL-10, G-CSF and eotaxin)","[5]; BMM exposed to P. gingivalis, multiplex analysis",significantly reduced
same,"secretion of IL-12, eotaxin, RANTES, IL-10 and interferon-γ","[5]; BMM infected with P. gingivalis, p<0.05",reduced
same,TNF-α secretion induced by P. gingivalis,"[6]; THP-1 cells, MOI=20:1, 10 to 200 μg/ml",significantly and dose-dependently reduced
same,TNF-[…] secretion,"[6]; THP-1 infected with P. gingivalis, lowest tested dose 10 µg/ml",reduced significantly
same,ACP5 gene expression,[7],reduced
same,"TNF-[…] secretion, z",[1],−1.07
"CC1(C)CC(=O)C=C(OC(=O)c2ccccc2)C1 [Kava-241, 5,5-dimethyl-3-oxocyclohex-1-en-1-yl benzoate]",inflammation including alveolar bone loss,[8],prevented
same,clinical inflammatory score,[9],reduced
same,number of inflammatory cells within joint,[9],decreased
same,number of osteoclasts within joint,[9],decreased
same,reduced alveolar bone loss,[10]; [15],36%
same,reduced epithelial down-growth,[10]; [15],72%
same,inflammatory cell counts within soft tissues,[10]; periodontitis model,reduction
same,fibroblasts,"[10]; periodontitis model, soft tissues",increase
same,TNF-α secretion,[11],reduced
same,TNF-α in serum,[12],decreased significantly
same,LITAF,[13],reduced
same,MAPKs related signal elements,[13],reduced
same,TLR-2/4,[13],reduced
